Counter-ions that a name gives are not always drawn.

In the assay the target is T1, CA (Human immunodeficiency virus type 1 group M subtype B, UniProt P12493).
T1 construct: a fusion protein of CA with glutathione-S-transferase (CA-GST)
Nature of the assay: AlphaScreen: inhibition of CAI-biotin peptide binding to CA-GST. More on the design: species or system HIV-1. The following applies: inhibition of CAI binding to CA (CA-GST fusion); compounds screened at 0.5-100 µM; read-out: α screen IC50. On the procedure:
The AlphaScreen experiments are performed using Perkin Elmer Enspire plate reader in white 96-well ProxiPlates and PBS supplemented with 0.05% Tween20, 2mM DTT, 2% DMSO. First, Streptavidin-coated Donor beads are used to capture the CAI-biotin peptide. In the other solution, a fusion protein of CA with glutathione-S-transferase (CA-GST) is mixed with GSH Acceptor beads. Both mixtures were incubated and then mixed together. To test the ability of prepared organic compounds to inhibit the CAI binding to CA, they are screened at concentrations between 0.5-100 µM and IC50 values are calculated from the influenced signals.
Upon illumination by laser at 680 nm, Donor beads containing the photosensitizer phthalocyanine convert ambient oxygen to an excited form of singlet oxygen ^1O2. Singlet oxygen can within its half-life of ∼ 4µs diffuse approximately 200 nm in solution. If an Acceptor bead is within that proximity, which is mostly upon CA:CAI interaction, energy is transferred from the singlet oxygen to thioxene derivates within the Acceptor and signal at 520 - 620 nm is emitted. […] Table 4: Synthesized and tested compounds
Usually IC50 stands for the concentration needed to halve the response being measured. For `CCOC(=O)c1ccc(Nc2ccnc(-c3cccnc3)n2)cc1` [AMR-722, ethyl4-((2-(pyridin-3-yl)pyrimidin-4-yl)amino)benzoate hydrochloride], the IC50 came to 19 µM.

Consider `CC(=O)c1ccc(Nc2ccnc(-c3cccnc3)n2)cc1` [AMR-725, 1.-(4-((2-(pyridin-3-yl)pyrimidin-4-yl)amino)phenyl)ethanone hydrochloride], for which the concentration for half-maximal inhibition (IC50) amounted to 53 µM.

Turning to `CC(=O)c1cccc(Nc2ccnc(-c3cccnc3)n2)c1` [AMR-726, 1-(3-((2-(pyridin-3-yi)pyrimidin-4-yl)amino)phenyl)ethanone hydrochloride], the IC50 turned out to be 39 µM.

With `CCOC(=O)c1ccc(Nc2cc(C(F)(F)F)nc(-c3cccnc3)n2)cc1` [AMR-742, ethyl 4-((2-(pyridin-3-yl)-6-(trifluoromethyl)pyrimidin-4-yl)amino)benzoate hydrochloride], the IC50 was > 100 µM.

As for `CC(=O)c1ccc(Nc2cc(C(F)(F)F)nc(-c3cccnc3)n2)cc1` [AMR-743, 1-(4-((2-(pyridin-3-yl)-6-(trifluoromethyl)pyrimidin-4-yl)amino)phenyl)ethanone hydrochloride], the IC50 was > 100 µM.

For `CCOC(=O)c1ccc(Nc2ccnc(-c3ccncc3)n2)cc1` [AMR-747, ethyl 4-((2-(pyridin-4-yl)pyrimidin-4-yl)amino)benzoate hydrochloride], the concentration for half-maximal inhibition (IC50) was 28 µM.

On to `CC(=O)c1ccc(Nc2ccnc(-c3ccncc3)n2)cc1` [AMR-748, 1-(4-((2-(pyridin-4-yl)pyrimidin-4-yl)amino)phenyl)ethanone hydrochloride], for which the IC50 was > 100 µM.

As to `FCCNc1ccnc(-c2ccncc2)n1` [AMR-758, N-(2-fluoroethyl)-2-(pyridin-4-yl)pyrimidin-4-amine hydrochloride], the IC50 was > 100 µM.

Take `CCOC(=O)c1cccc(Nc2ccnc(-c3ccncc3)n2)c1` [AMR-759, ethyl 3-((2-(pyridin-4-yl)pyrimidin-4-yl)amino)benzoate hydrochloride]: the IC50 was > 100 µM.

Regarding `O=C(NCCF)c1ccc(Nc2ccnc(-c3ccncc3)n2)cc1` [AMR-763, N-(2-fluoroethyl)-4-((2-(pyridin-4-yl)pyrimidin-4-yl)amino)benzamide hydrochloride], the IC50 is > 100 µM.

For `O=C(NCC(F)(F)F)c1ccc(Nc2ccnc(-c3cccnc3)n2)cc1` [AMR-771, 4-((2-(pyridin-3-yl)pyrimidin-4-yl)amino)-N-(2,2,2-trifluoroethyl)benzamide hydrochloride], the IC50 is 55 µM.

Turning to `CCOC(=O)c1ccc(Nc2cc(C)nc(-c3cccnc3)n2)cc1` [AMR-778, ethyl 4-((6-methyl-2-pyridin-3-yl)pyrimidin-4-yl)amino)benzoate hydrochloride], the IC50 worked out at 21 µM.

Regarding `O=C(NCCF)c1ccc(Nc2ccnc(-c3cccnc3)n2)cc1` [AMR-792, N-(2-fluoroethyl)-4-((2-(pyridin-3-yl)pyrimidin-4-yl)amino)benzamide hydrochloride], the IC50 is 34 µM.

For the compound `CC(=O)c1ccc(Nc2cc(C)nc(-c3cccnc3)n2)cc1` [AMR-794, 1-(4-((6-methyl-2-(pyridin-3-yl)pyrimidin-4-yl)amino)phenyl)ethanone hydrochloride], the IC50 was determined as 12 µM.

For the compound `Cc1cc(Nc2ccc(C(=O)NCCF)cc2)nc(-c2cccnc2)n1` [AMR-795, N-(2-fluoroethyl)-4-((6-methyl-2-(pyridin-3-yl)pyrimidin-4-yl)amino)benzamide hydrochloride], the IC50 was 8 µM.

Consider `O=C(O)c1ccc(Nc2ccnc(-c3cccnc3)n2)cc1Cl` [AMR-802, 2-chloro-4-((2-(pyridin-3-yl)pyrimidin-4-yl)amino)benzoic acid hydrochloride], for which the IC50 was 25 µM.

On to `O=C(NCCF)c1cc(Nc2ccnc(-c3cccnc3)n2)ccc1F` [AMR-816, 2-fluoro-N-(2-fluoroethyl)-5-((2-(pyridin-3-yl)pyrimidin-4-yl)amino)benzamide dihydrochloride], for which the IC50 turned out to be 68 µM.

In the case of `CCN(CC)CCNC(=O)c1ccc(Nc2ccnc(-c3cccnc3)n2)cc1` [AMR-822, N-(2-(diethylamino)ethyl)-4-((2-(pyridin-3-yl)pyrimidin-4-yl)amino)benzamide dihydrochloride], the IC50 was > 100 µM.

With `CCOC(=O)c1ccc(Nc2ccnc(-c3cccnc3)n2)c(F)c1` [AMR-823, ethyl 3-fluoro-4-((2-(pyridin-3-yl)pyrimidin-4-yl)amino)benzoate hydrochloride], the IC50 came to 30 µM.

For `O=C(NCCF)c1ccc(Nc2ccnc(-c3cccnc3)n2)c(F)c1` [AMR-825, 3-fluoro-N-(2-fluoroethyl)-4-((2-(pyridin-3-yl)pyrimidin-4-yl)amino)benzamide hydrochloride], the IC50 was determined as 73 µM.

Regarding `CCN(CC)CCOC(=O)c1ccc(Nc2ccnc(-c3cccnc3)n2)cc1F` [AMR-827, 2-(diethylamino)ethyl 2-fluoro-4-{(2-(pyridin-3-yl)pyrimidin-4-yl)amino)benzoate hydrochloride], the IC50 is > 100 µM.

Turning to `Cc1cc(Nc2ccc(C(=O)NCCF)c(F)c2)nc(-c2cccnc2)n1` [AMR-828, 2-fluoro-N-(2-fluoroethyl)-4-((6-methyl-2-(pyridin-3-yl)pyrimidin-4-yl)amino)benzamide hydrochloride], the IC50 was 3 µM.

Consider `Cc1cc(Nc2ccc(C(=O)NCCF)cc2F)nc(-c2cccnc2)n1` [AMR-829, 3-fluoro-N-(2-fluoroethyl)-4-((6-methyl-2-(pyridin-3-yl)pyrimidin-4-yl)amino)benzamide hydrochloride], for which the IC50 is 15 µM.

Turning to `CC(=O)c1cccc(Nc2cc(C)nc(-c3cccnc3)n2)c1` [AMR-830, 1-(3-((6-methyl-2-(pyridin-3-yl)pyrimidin-4-yl)amino)phenyl)ethanone hydrochloride], the IC50 worked out at 10 µM.

As for `O=C(NCCF)c1ccc(Nc2ccnc(-c3cccnc3)n2)cc1F` [AMR-831, 2-fluoro-N-(2-fluoroethyl)-4-((2-(pyridin-3-yl)pyrimidin-4-yl)amino)benzamide hydrochloride], the IC50 was found to be 43 µM.

For `Cc1cc(Nc2cc(C(=O)NCCF)ccc2F)nc(-c2cccnc2)n1` [AMR-832, 4-fluoro-N-(2-fluoroethyl)-3-((6-methyl-2-(pyrldin-3-yl)pyrimidin-4-yl)amino)benzamide hydrochloride], the IC50 came out at 52 µM.

`CC(=O)c1ccc(F)c(Nc2cc(C)nc(-c3cccnc3)n2)c1` [AMR-838, 1-(4-fluoro-3-((6-methyl-2-(pyridin-3-yl)pyrimidin-4-yl)amino)phenyl)ethanone hydrochloride]: the IC50 was > 100 µM.

`CC(=O)c1cc(Nc2cc(C)nc(-c3cccnc3)n2)ccc1F` [AMR-839, 1-(2-fluoro-5-((6-methyl-2-(pyridin-3-yl)pyrimidin-4-yl)amino)phenyl)ethanone hydrochloride]: the IC50 was 9 µM.

`Fc1ccc(Nc2ccnc(-c3cccnc3)n2)cc1F` [KP-343, N-(3,4-difluorophenyl)-2-(pyridin-3-yl)pyrimidin-4-amine dihydrochloride]: the 50% inhibitory concentration (IC50) stood at 38 µM.

For `CCOC(=O)c1ccccc1Nc1ccnc(-c2cccnc2)n1` [KP-347, Ethyl 2-{[2-(pyridm-3-yl)pyrimidm-4-yl]amino}benzoate hydrochloride], the IC50 was > 100 µM.

`Fc1cc(Nc2ccnc(-c3cccnc3)n2)cc(F)c1F` [KP-351, N-(3,4,5-trifluorophenyl)-2-(pyridin-3-yl)pyrimidin-4-amine dihydrochloride]: the IC50 turned out to be 60 µM.

As for `CCOC(=O)c1ccc(Nc2ccnc(-c3cncc(Br)c3)n2)cc1` [KP-352, Ethyl 4-{[2-(5-bromopyridin-3-yl)pyrinudm-4-yl]amino}benzoate hydrochloride], the IC50 is > 100 µM.

As to `Fc1ccc(Nc2ccnc(-c3cncc(Br)c3)n2)cc1F` [KP-355, 2-(5-Bromopyridin-3-yl)-N-(3,4-difluorophenyl)pyrimidin-4-amine hydrochloride], the IC50 was > 100 µM.

`Fc1cc(Nc2ccnc(-c3cncc(Br)c3)n2)cc(F)c1F` [KP-359, 2-(5-Bromopyridin-3-yl)-N-(3,4,5-trifluorophenyl)pyrimidin-4-amine hydrochloride]: the IC50 is > 100 µM.

As to `Fc1ccc(Nc2ccnc(-c3ccncc3)n2)cc1F` [KP-360, N-(3,4-difluorophenyl)-2-(pyridin-4-yl)pyrimidin-4-amine dihydrochloride], the IC50 came out at 81 µM.

As to `CCOC(=O)c1ccccc1Nc1ccnc(-c2cncc(Br)c2)n1` [KP-363, Ethyl 2-{[2-(5-bromopyridin-3-yl)pyrimidin-4-yl]amino}benzoate hydrochloride], the IC50 was 58 µM.

In the case of `Cn1nnc2cc(Nc3ccnc(-c4cncc(Br)c4)n3)ccc21` [KP-364, N-[2-(5-bromopyridin-3-yl)pyrimidin-4-yl]-1-methyl-1H-benzotriazol-5-amine dihydrochloride], the IC50 was 14 µM.

In the case of `CCOC(=O)c1ccc(Nc2cc(-c3cccnc3Cl)ncn2)cc1` [KP-369, Ethyl 4-{[6-(2-chloropyridin-3-yl)pyrimidin-4-yl]amino}benzoate hydrochloride], the IC50 was > 100 µM.

Regarding `Fc1cc(Nc2cc(-c3cccnc3Cl)ncn2)cc(F)c1F` [KP-373, 6-(2-Chloropyridin-3-yl)-N-(3,4,5-trifluorophenyl)pyrimidin-4-amine hydrochloride], the IC50 is > 100 µM.

The values above are taken from patent EP2769722A1 (Ruprecht-Karls-Universität Heidelberg, priority 2013, dated 2014).
